This assay has as its target T1, Human α-thrombin (Homo sapiens, UniProt P00734).
T1 construct: Human α-thrombin (Enzyme Research Laboratories HT1002a); purchased Enzyme Research Laboratories (South Bend, Ind.) HT1002a
Kind of assay: In vitro inhibition of purified enzyme; kinetic analysis by chromogenic substrates. Format: biochemical. The conditions noted are these: substrate SucAAPR pNA 100 uM, Km=320 μM, Ki factor=0.76; 37° C., pH 7.5, 4% DMSO; thrombin 1.1 nM; Ki=IC50×Ki factor. On the procedure: In Vitro Inhibition of Purified Enzyme
Reagents: All buffer salts were obtained from Sigma Chemical Company (St. Louis, Mo.), and were of the highest purity available.
Human α-thrombin, was obtained from Enzyme Research Laboratories (South Bend, Ind.).
Kinetic Analysis by Chromogenic Substrates
Compounds were assessed for their inhibitory activity toward Thrombin by kinetic analysis using para-nitroaniline chromogenic substrates monitored at 405 nm. The assay buffer employed was 50 mM HEPES, pH 7.5, 200 mM NaCl, and fresh 0.05% n-octyl β-d-glucopyranoside. DMSO was present at a final concentration of 4%, derived from the substrate and inhibitory compound stock solutions. […] Reactions were initiated by addition of 10 μL protease, and increase in absorbance due to proteolytic cleavage of substrate was kinetically monitored at 37° C., 405 nm with a Molecular Devices Spectramax 340 platereader. Initial velocities were determined by analysis of the initial linear portion of the reactions. Plots of vo/vi vs. inhibitor concentration, where vo=velocity without inhibitor, and vi=inhibited velocity, were fit to a linear regression line, and the IC50 was determined from the reciprocal of the slope. […]

Where a name gives a salt, the structure may show the parent alone.

For orientation: Ki means the dissociation constant of the complex between target and ligand, obtained from inhibition or displacement. A low value points to a stronger hold on the target. The molecule `N#Cc1cc(F)c(NCC(F)(F)c2ccccn2)[n+]([O-])c1CC(=O)NCc1ncccc1F` [Example 1, 2-[3-Cyano-6-(2,2-difluoro-2-pyridin-2-yl-ethylamino)-5-fluoro-1-oxy-pyridin-2-yl]-N-(3-fluoro-pyridin-2-ylmethyl)-acetamide dihydrochloride] gave a Ki of 9.8 to 11 nM.

Values taken from patent US7262210B2, “Fluorinated pyridine N-oxide thrombin modulators and process for N-oxidation of nitrogen containing heteroaryls” (Janssen Pharmaceutica N.V., priority 2005, dated 2007).
